The source of these data is patent publication US20100311133A1, “ELECTRODE, ENZYME SENSOR USING THE ELECTRODE, FUEL BATTERY, ELECTRONIC DEVICE, AND METHOD FOR DECOMPOSING POLYOL” (SONY CORPORATION, priority 2007, published 2010).

The test system of one assay is Aldehyde reductase. As to the kind of experiment: Amount of NADH generated from polyol substrates by aldehyde reductase (Example 3). It counts as biochemical, Candida. The following applies: substrate 100 mmol/L; NAD+ 1.3 mg/mL; enzyme 2.5 μ/mL; 25° C.; relative to alcohol dehydrogenase with ethylene glycol = 100. From the text:
(§1) To be more specific, an alcohol dehydrogenase and an aldehyde reductase were allow to act with each substrate and the amount of NADH generated was comparatively investigated.
(§2) Individual relative values are indicated as relative values by assuming the amount of NADH generated from action of the alcohol dehydrogenase with ethylene glycol to be 100.

Another assay has as its target T1, Alcohol dehydrogenase (Saccharomyces cerevisiae, UniProt P00330).
T1 construct: purchased Wako Pure Chemical Industries, Ltd
T1 sequence (P00330 1-348): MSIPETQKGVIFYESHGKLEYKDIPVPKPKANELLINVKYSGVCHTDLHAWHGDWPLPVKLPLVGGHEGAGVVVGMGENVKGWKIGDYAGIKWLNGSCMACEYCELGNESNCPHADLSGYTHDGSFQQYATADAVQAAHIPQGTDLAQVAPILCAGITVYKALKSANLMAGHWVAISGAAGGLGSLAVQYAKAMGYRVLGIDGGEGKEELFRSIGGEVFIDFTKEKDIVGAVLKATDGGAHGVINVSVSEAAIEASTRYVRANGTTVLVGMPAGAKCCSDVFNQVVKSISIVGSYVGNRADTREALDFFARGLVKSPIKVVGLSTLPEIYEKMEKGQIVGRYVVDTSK
The experiment in a line: Amount of NADH generated from polyol substrates by alcohol dehydrogenase (Example 3). It counts as biochemical, yeast. The following applies: substrate 100 mmol/L; NAD+ 1.3 mg/mL; enzyme 2.5 μ/mL; 25° C.; relative to alcohol dehydrogenase with ethylene glycol = 100.
Excerpt: as §1, §2

For `OC[C@@H](O)[C@@H](O)CO` [Erythritol, erythritol], the “Amount of reduced coenzyme generated (relative value %), Aldehyde reductase” value (“Amount … (relative value %), Aldehyde reductase” for short) with Aldehyde reductase is given as 50%. Besides, at Alcohol dehydrogenase, the “Amount of reduced coenzyme generated (relative value %), Alcohol dehydrogenase” value is 6.0%.

Take `OCCO` [Ethylene glycol, ethylene glycol]: the “Amount … (relative value %), Aldehyde reductase” value with Aldehyde reductase was 4.0%. In addition, the “Amount of reduced coenzyme generated (relative value %), Alcohol dehydrogenase” value at Alcohol dehydrogenase is 100%.

For the molecule `OCC(O)CO` [Glycerol, glycerol], the “Amount … (relative value %), Aldehyde reductase” value in the assay with Aldehyde reductase is reported as 7.0%. Also, the “Amount of reduced coenzyme generated (relative value %), Alcohol dehydrogenase” value on Alcohol dehydrogenase is given as 0.6%.

Consider `OC[C@@H](O)[C@@H](O)[C@H](O)[C@@H](O)CO` [Sorbitol, sorbitol], for which the “Amount … (relative value %), Aldehyde reductase” value in the assay with Aldehyde reductase worked out at 100%. Besides, the “Amount of reduced coenzyme generated (relative value %), Alcohol dehydrogenase” value on Alcohol dehydrogenase amounted to 0.7%.

As to `OC[C@@H](O)[C@H](O)[C@@H](O)CO` [Xylitol, xylitol], the “Amount … (relative value %), Aldehyde reductase” value in the assay with Aldehyde reductase was 34%. Also, on Alcohol dehydrogenase, the “Amount of reduced coenzyme generated (relative value %), Alcohol dehydrogenase” value worked out at 0.4%.
